For assay [1], the system named is endothelial cells. Nature of the assay: Tube formation of endothelial cells in three-dimensional collagen fiber gel model, inverted microscopy. The settings on record: cultured for 48 hours. Type of assay: cell-based, Sprague-Dawley (SD) rats. On the procedure: (§1) Three-dimensional collagen fiber gel: The dry collagen fiber was extract from tails of Sprague-Dawley (SD) rats. The fiber was dissolved in 1 N acetic acid solution in the concentration of 1 g fiber/100 mL acetic acid. The dissolving was performed at 4° C. for 48 hours and followed by dialysis three times with 0.25 N acetic acid solution for 24 hours.
(§2) Endothelial cells: SD rats weighting 100 to 200 g were anaesthetized with 0.1 mL/100 g body weight of barbiturate (Nembutal™, Abbott® Laboratories, USA) intraperitoneally. The thoracic aortas were cut and the connective tissues were removed. The vessels were further split into vessel rings thickening about 2 mm, and then cultured the rings in fresh Dulbecco's modified Eagle medium (DMEM) with 10% fetal bovine serum. The culture was maintained at 37° C. with 5% CO2 with changing the medium every two days. After cultured for 5 to 6 days, the cells were harvested. The endothelial cells suitable for the method according to the invention were the second to tenth passage cells.
Model: The endothelial cells (3×10^6) were mixed in the three-dimensional collagen fiber gel and cultured in DMEM containing 5% fetal bovine serum and 10 ng/mL VEGF and 3.08 ng/mL TPA at 37° C. After culturing the endothelial cells for 0, 6, 12, 24, 48, and 72 hours, the morphologies of the cell and gel were both observed with an inverted microscope. […]

The subject of assay [2] is endothelial cells. Briefly: Collapse of the three-dimensional collagen fiber gel, trypan blue absorbance measurement. Type of assay: cell-based, Sprague-Dawley (SD) rats. Here is the method: as §1
as §2, with “cells. […]” for “cells.”
After culturing for 48 hours, the medium was removed and 0.075% trypan blue was added for staining the gels for 30 minutes. The upper solution was then removed and the absorbance of the solution was determined with a spectroscope. […]
It was evidenced that the degree of collapse of the three-dimensional collagen fiber gel is decreased with the addition of EGCg. That results support that the effect of a compound on angiogenesis can be determined by comparing the degrees of collapse of the collagen fiber gels of the models. For instance, the compound is determined to have a stimulatory effect on angiogenesis in case the collapse of the collagen fiber gel of the model added with the compound is increased in comparison with that added without the compound; in contrast, the compound is determined to have an inhibitory effect on angiogenesis in case the collapse of the collagen fiber gel of the model added with the compound is decreased in comparison with that added without the compound.

On to `O=C(O[C@@H]1Cc2c(O)cc(O)cc2O[C@@H]1c1cc(O)c(O)c(O)c1)c1cc(O)c(O)c(O)c1` [EGCg, epigallocatechin gallate], for which the “tubes and cell count versus control without EGCg” value in the assay on endothelial cells [1] (25 μM EGCg) was “less tubes and lower cell count”. Also, the tubes result with endothelial cells [1] (100 μM EGCg) is given as “almost no tubes”. Also, in the assay on endothelial cells [2] (25 μM EGCg), the “inhibitory effect on angiogenesis (absorbance measurement)” value is listed as “a little inhibitory effect on angiogenesis”. The “collapse of the gel (absorbance measurement)” value in the assay with endothelial cells [2] (50 μM EGCg) is “nearly totally inhibited”; in the assay with endothelial cells [2] (100 μM EGCg), “nearly no collapse was observed”.

Values taken from US20050064521A1, “In vitro assay for evaluation of angiogenic effects” (TUNGHAI UNIVERSITY, priority 2003, published 2005).
